Here are results for 24 compounds from patent US9840478B2 (MERCK SHARP & DOHME CORP., priority 2013, dated 2017).

The test system of this assay is HIV-1 (H9IIIB strain). Briefly: Cell-based HIV infection assay using a reporter (Cell-Based), MT4-GFP cells. The note with it: Human immunodeficiency virus 1, MT4-GFP cells infected with HIV-1 H9IIIB; 50% normal human serum; mean of at least two independent experiments; read-out: Cell-based IP. In a few lines: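 MT4-GFP cells (HIV LTR-driven GFP) infected 24 h with HIV-1 H9IIIB at low MOI, then washed and plated with compounds in RPMI + 50% normal human serum, 0.4% DMSO final. Green cells counted at 24 and 48 h; R0 = 48 h/24 h ratio, inhibition normalized to DMSO and triple-drug control; IC50 from 4-parameter fit.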
`COC(=O)N[C@H](C(=O)Nc1cncc(F)c1CC[C@H]1CNC[C@H](C)N1S(=O)(=O)C1CC1)[C@@H](c1ccc(Cl)cc1)C(C)C` [Example 179, (βR)-4-chloro-N-(4-{2-[(2S,6S)-1-(cyclopropylsulfonyl)-6-methylpiperazin-2-yl]ethyl}-5-fluoropyridin-3-yl)-Nα-(methoxycarbonyl)-β-(1-methylethyl)-L-phenylalaninamide]: the IC50 was found to be 0.033 µM.
As to `C[C@H]1CNC[C@H](CCc2c(F)cccc2NC(=O)[C@@H](N)[C@@H](c2ccc(F)cc2)c2cc(F)cc(F)c2)N1S(=O)(=O)c1cccc(F)c1` [Example 106, (βS)-β-(3,5-difluorophenyl)-4-fluoro-N-[3-fluoro-2-(2-{(2S,6S)-1-[(3-fluorophenyl)sulfonyl]-6-methylpiperazin-2-yl}ethyl)phenyl]-L-phenylalaninamide], the IC50 turned out to be 0.03 µM.
With `C[C@@H]1CNC[C@H](CCc2c(F)cncc2NC(=O)[C@@H](N)[C@@H](c2ccc(Cl)cc2)C2CCOCC2)N1S(=O)(=O)c1ccccc1` [Example 280, (βR)-4-chloro-N-(5-fluoro-4-{2-[(2S,6R)-6-methyl-1-(phenylsulfonyl)piperazin-2-yl]ethyl}pyridin-3-yl)-β-(tetrahydro-2H-pyran-4-yl)-L-phenylalaninamide] the figure was 0.016 µM; with `O=C(C[C@@H](c1ccc(F)cc1)c1cc(F)cc(F)c1)Nc1cncc(F)c1CC[C@H]1CNCCN1S(=O)(=O)N1CCCC(F)C1` (stereo partly drawn) [Example 333, (3S)-3-(3,5-difluorophenyl)-N-[5-fluoro-4-(2-{(2S)-1-[(3-fluoropiperidin-1-yl)sulfonyl]piperazin-2-yl}ethyl)pyridin-3-yl]-3-(4-fluorophenyl)propanamide], 0.064 µM; with `COC(=O)N[C@H](C(=O)Nc1cncc(F)c1CC[C@H]1CNC[C@H](C)N1S(=O)(=O)c1ccccc1)[C@@H](c1ccc(Cl)cc1)C(C)C` [Example 8, Methyl ((2S,3R)-3-(4-chlorophenyl)-1-((5-fluoro-4-(2-((2S,6S)-6-methyl-1-(phenylsulfonyl)piperzin-2-yl)ethyl)pyridin-3-yl)amino)-4-methyl-1-oxopentan-2-yl)carbamate], 0.0098 µM.
For `COC(=O)N[C@H](C(=O)Nc1cccc(F)c1CC[C@H]1CNC[C@H](C)N1S(=O)(=O)C1CC1)[C@@H](c1ccc(F)cc1)c1cc(F)cc(F)c1` [Example 212, (βS)-N-(2-{2-[(2S,6S)-1-(cyclopropylsulfonyl)-6-methylpiperazin-2-yl]ethyl}-3-fluorophenyl)-β-(3,5-difluorophenyl)-4-fluoro-Nα-(methoxycarbonyl)-L-phenylalaninamide], the IC50 was determined as 0.013 µM.
Then `C[C@@H]1CN(S(=O)(=O)c2ccccc2)[C@@H](CCc2c(F)cccc2NC(=O)[C@@H](N)[C@@H](c2ccc(Cl)cc2)c2cccc(OC(F)(F)F)c2)CN1` [Example 98, (βS)-4-chloro-N-(3-fluoro-2-{2-[(2S,5R)-5-methyl-1-(phenylsulfonyl)piperazin-2-yl]ethyl}phenyl)-β-[3-(trifluoromethoxy)phenyl]-L-phenylalaninamide], with 0.35 µM; and `CCOC(=O)N[C@H](C(=O)Nc1cccc(F)c1CC[C@H]1CNC[C@@H](C)N1S(=O)(=O)c1ccccc1)[C@@H](c1ccc(Cl)cc1)C1CCOCC1` [Example 148, (βR)-4-chloro-Nα-(ethoxycarbonyl)-N-(3-fluoro-2-{2-[(2S,6R)-6-methyl-1-(phenylsulfonyl)piperazin-2-yl]ethyl}phenyl)-β-(tetrahydro-2H-pyran-4-yl)-L-phenylalaninamide], with 0.0088 µM.
Then `Cn1cc(S(=O)(=O)N2CCNC[C@@H]2CCc2c(F)cncc2NC(=O)C[C@@H](c2ccc(F)cc2)c2cc(F)cc(F)c2)cn1` [Example 316, (3S)-3-(3,5-difluorophenyl)-N-[5-fluoro-4-(2-{(2S)-1-[(1-methyl-1H-pyrazol-4-yl)sulfonyl]piperazin-2-yl}ethyl)pyridin-3-yl]-3-(4-fluorophenyl)propanamide], with 0.019 µM; and `N[C@H](C(=O)Nc1cccc(F)c1CC[C@H]1CNCCN1S(=O)(=O)c1ccccc1)[C@@H](c1ccc(Cl)cc1)c1cccc(F)c1` [Example 39, (βS)-4-chloro-β-(3-fluorophenyl)-N-(3-fluoro-2-{2-[(2S)-1-(phenylsulfonyl)piperazin-2-yl]ethyl}phenyl)-L-phenylalaninamide], with 0.012 µM.
Then `COC(=O)N[C@H](C(=O)Nc1cccc(F)c1CC[C@H]1CNC[C@H](C)N1S(=O)(=O)C1CC1)[C@@H](c1ccc(Cl)cc1)C(C)C` [Example 144, (βR)-4-chloro-N-(2-{2-[(2S,6S)-1-(cyclopropylsulfonyl)-6-methylpiperazin-2-yl]ethyl}-3-fluorophenyl)-Nα-(methoxycarbonyl)-β-(1-methylethyl)-L-phenylalaninamide], with 0.093 µM; and `CS(=O)(=O)N1[C@@H](CCc2c(F)cccc2NC(=O)[C@@H](N)[C@@H](c2ccc(F)cc2)c2cc(F)cc(F)c2)CNC[C@@H]1C1CC1` [Example 205, (βS)-N-(2-{2-[(2S,6S)-6-cyclopropyl-1-(methylsulfonyl)piperazin-2-yl]ethyl}-3-fluorophenyl)-β-(3,5-difluorophenyl)-4-fluoro-L-phenylalaninamide], with 0.022 µM.
As to `N[C@H](C(=O)Nc1cncc(F)c1CC[C@H]1CNCCN1S(=O)(=O)C1CC1)[C@@H](c1ccc(F)cc1)c1cc(F)cc(F)c1` [Example 33, (βS)-N-(4-{2-[(2S)-1-(cyclopropylsulfonyl)piperazin-2-yl]ethyl}-5-fluoropyridin-3-yl)-3,5-difluoro-β-(4-fluorophenyl)-L-phenylalaninamide], the IC50 was determined as 0.025 µM.
With `COC(=O)N[C@H](C(=O)Nc1cccc(F)c1CC[C@H]1CNC[C@H](C)N1S(=O)(=O)c1ccc(OC(F)(F)F)cc1)[C@@H](c1ccc(Cl)cc1)c1ccc(OC)nc1` [Example 189, (βS)-4-chloro-N-(3-fluoro-2-{2-[(2S,6S)-6-methyl-1-{[4-(trifluoromethoxy)phenyl]sulfonyl}piperazin-2-yl]ethyl}phenyl)-Nα-(methoxycarbonyl)-β-(6-methoxypyridin-3-yl)-L-phenylalaninamide], the IC50 amounted to 0.029 µM.
Then `N[C@H](C(=O)Nc1cccc(F)c1CC[C@H]1CNCCN1S(=O)(=O)c1cc2ccccc2o1)[C@@H](c1ccc(F)cc1)c1cc(F)cc(F)c1` [Example 372, (2S,3S)-2-amino-N-(2-(2-((S)-1-(benzofuran-2-ylsulfonyl)piperazin-2-yl)ethyl)-3-fluorophenyl)-3-(3,5-difluorophenyl)-3-(4-fluorophenyl)propanamide], with 0.014 µM; and `COC(=O)N[C@H](C(=O)Nc1cccc(F)c1CC[C@H]1CNC[C@H](C)N1S(=O)(=O)c1ccc(OC)cc1)[C@@H](c1ccc(F)cc1)c1cc(F)cc(F)c1` [Example 252, (βS)-β-(3,5-difluorophenyl)-4-fluoro-N-[3-fluoro-2-(2-{(2S,6S)-1-[(4-methoxyphenyl)sulfonyl]-6-methylpiperazin-2-yl}ethyl)phenyl]-Nα-(methoxycarbonyl)-L-phenylalaninamide], with 0.0079 µM; and `O=C(CC1CC1)N[C@H](C(=O)Nc1cncc(F)c1CC[C@H]1CNCCN1S(=O)(=O)N1CCCC1)[C@@H](c1ccc(F)cc1)c1cc(F)cc(F)c1` [Example 87], with 0.016 µM.
Then `COC(=O)NC(C(=O)Nc1cccc(F)c1CC[C@H]1CNC[C@@H](C)N1S(=O)(=O)c1ccc(C(F)F)cc1)[C@@H](c1ccc(Cl)cc1)C1CCOCC1` (stereo partly drawn) [Example 266], with 0.026 µM; and `COc1ccc(S(=O)(=O)N2[C@@H](CCc3c(F)cccc3NC(=O)[C@@H](N)C(c3cccc(F)c3)c3cccc(F)c3)CNC[C@@H]2C)cc1` [Example 156, 3-fluoro-N-[3-fluoro-2-(2-{(2S,6S)-1-[(4-methoxyphenyl)sulfonyl]-6-methylpiperazin-2-yl}ethyl)phenyl]-β-(3-fluorophenyl)-L-phenylalaninamide], with 0.014 µM.
With `COC(=O)N[C@H](C(=O)Nc1cccc(F)c1CC[C@H]1CNCCN1S(=O)(=O)c1ccccc1)[C@@H](c1ccc(Cl)cc1)c1cncc(C(F)(F)F)c1` [Example 66, (βS)-4-chloro-N-(3-fluoro-2-{2-[(2S)-1-(phenylsulfonyl)piperazin-2-yl]ethyl}phenyl)-Nα-(methoxycarbonyl)-β-[5-(trifluoromethyl)pyridin-3-yl]-L-phenylalaninamide] the figure was 0.012 µM; with `CC(C)[C@H](c1ccc(Cl)cc1)[C@H](N)C(=O)Nc1cncc(F)c1CC[C@H]1CNC[C@H](C)N1S(=O)(=O)c1ccccc1` [Example 126, (βR)-4-chloro-N-(5-fluoro-4-{2-[(2S,6S)-6-methyl-1-(phenylsulfonyl)piperazin-2-yl]ethyl}pyridin-3-yl)-β-(1-methylethyl)-L-phenylalaninamide], 0.016 µM; with `COC(=O)N[C@H](C(=O)Nc1cncc(F)c1CC[C@H]1CNCCN1S(=O)(=O)c1ccccc1)[C@@H](c1ccc(Cl)cc1)c1cccc(F)c1` [Example 53, (βS)-4-chloro-β-(3-fluorophenyl)-N-(5-fluoro-4-{2-[(2S)-1-(phenylsulfonyl)piperazin-2-yl]ethyl}pyridin-3-yl)-Nα-(methoxycarbonyl)-L-phenylalaninamide], 0.0065 µM.
Regarding `CCN(CC)S(=O)(=O)N1CCNC[C@@H]1CCc1c(F)cncc1NC(=O)C[C@@H](c1ccc(F)cc1)c1cc(F)cc(F)c1` [Example 340, (3S)-N-(4-{2-[(2S)-1-(diethylsulfamoyl)pipera-zin-2-yl]ethyl}-5-fluoropyridin-3-yl)-3-(3,5-difluorophenyl)-3-(4-fluorophenyl)propanamide], the IC50 turned out to be 0.21 µM.
Then `COC(=O)NC(C(=O)NC1CC(O)CC1CC[C@H]1CNCCN1S(=O)(=O)c1ccccc1)C(c1ccc(F)cc1)c1ccc(F)cc1` (stereo partly drawn) [Example 357, Methyl ((2R)-1,1-bis(4-fluorophenyl)-3-((4-hydroxy-2-(2-((S)-1-(phenylsulfonyl)piperazin-2-yl)ethyl)cyclopentyl)amino)-3-oxopropan-2-yl)carbamate], with 0.82 µM.
